Like-named read-outs stand apart in the source and are kept apart here.
Key:
Format in all cases: biochemical
JAK2 = JAK2 (Homo sapiens (Human), UniProt O60674); test: JAK2 LANCE Ultra kinase assay; conditions: 12 uM ATP
JAK1 = JAK1 (Homo sapiens (Human), UniProt P23458); test: JAK1 LANCE Ultra kinase assay; conditions: for IC50: 38 uM ATP; for JAK2/JAK1: ratio of IC50 JAK2 to IC50 JAK1
Description: Inhibition test on activity of JAK kinase in vitro was carried out by the following methods.
JAK1 LANCE® Ultra assay, JAK2 LANCE® Ultra assay and JAK3 LANCE® Ultra assay were used to carry out the test separately, and kits of the above assays were supplied by PerkinElmer. […]
JAK1, JAK2 and JAK3 kinase, ATP and substrates were dissolved and diluted with buffers.
A test liquid was 2 nM Eu-W1024 anti-phosphotyrosine (PerkinElmer, AD0069). A stop buffer was 10 mM edetic acid (Intech, 1842C505).
2.5 μl of an 8-fold solution of the compound and 5 μl of a 4-fold solution of JAK1 or JAK2 or JAK3 kinase were added into a 384-well plate, respectively, and reacted for 10 minutes at room temperature. 2.5 μl of an 8-fold solution of ULight™-JAK-1 peptide/ATP was added and reacted for 90 minutes at room temperature. Finally, 5 μl of 4-fold edetic acid stop buffer and 5 μl of 4-fold test liquid of Eu-W1024 anti-phosphotyrosine were added and incubated for 60 minutes.
According to the formula: percentage of inhibition rate=(maximum value−transform value)/(maximum value−minimum value)×100, inhibition rate of each compound at various concentrations was calculated. The maximum value was the reference value of dimethyl sulfoxide added into the well plate, the minimum value was the blank value, and the transform value is the value obtained by the well of each compound. The IC50 values of the corresponding compounds were then obtained by fitting by using the XLFit fitting tool in excel.

JAK3 = JAK3 (Homo sapiens (Human), UniProt P52333); test: JAK3 LANCE Ultra kinase assay
Chain of JAK3 (P52333 whole entry): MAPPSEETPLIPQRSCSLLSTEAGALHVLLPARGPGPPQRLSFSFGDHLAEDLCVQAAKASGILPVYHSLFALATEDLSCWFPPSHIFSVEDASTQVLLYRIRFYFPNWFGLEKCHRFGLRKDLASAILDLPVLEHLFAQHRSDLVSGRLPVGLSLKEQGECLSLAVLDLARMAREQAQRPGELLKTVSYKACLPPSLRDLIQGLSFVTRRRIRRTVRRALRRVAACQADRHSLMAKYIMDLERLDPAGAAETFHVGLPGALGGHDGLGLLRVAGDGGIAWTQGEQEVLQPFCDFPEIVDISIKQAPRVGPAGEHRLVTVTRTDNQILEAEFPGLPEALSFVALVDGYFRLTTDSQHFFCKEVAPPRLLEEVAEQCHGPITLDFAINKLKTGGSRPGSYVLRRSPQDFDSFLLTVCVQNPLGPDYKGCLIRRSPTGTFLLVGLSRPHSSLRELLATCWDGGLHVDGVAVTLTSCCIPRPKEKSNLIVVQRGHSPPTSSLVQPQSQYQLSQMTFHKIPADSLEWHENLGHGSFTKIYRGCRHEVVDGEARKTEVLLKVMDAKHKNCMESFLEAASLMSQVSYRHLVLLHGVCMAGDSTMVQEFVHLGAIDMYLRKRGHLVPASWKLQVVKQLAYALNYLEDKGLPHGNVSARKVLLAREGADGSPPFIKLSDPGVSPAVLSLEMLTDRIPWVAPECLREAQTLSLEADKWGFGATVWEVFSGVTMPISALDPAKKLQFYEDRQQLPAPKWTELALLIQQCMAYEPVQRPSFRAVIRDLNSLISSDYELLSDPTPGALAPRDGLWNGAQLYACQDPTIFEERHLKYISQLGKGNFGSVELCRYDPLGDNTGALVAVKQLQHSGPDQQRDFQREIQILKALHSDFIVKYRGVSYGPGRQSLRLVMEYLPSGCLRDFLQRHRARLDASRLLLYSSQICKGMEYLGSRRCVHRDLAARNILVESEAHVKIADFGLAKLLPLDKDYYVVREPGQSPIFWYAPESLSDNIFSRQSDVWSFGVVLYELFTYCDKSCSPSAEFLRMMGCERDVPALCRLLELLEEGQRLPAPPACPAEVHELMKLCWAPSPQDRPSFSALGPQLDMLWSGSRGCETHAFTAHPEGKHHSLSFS

Chain of JAK2 (O60674 whole entry): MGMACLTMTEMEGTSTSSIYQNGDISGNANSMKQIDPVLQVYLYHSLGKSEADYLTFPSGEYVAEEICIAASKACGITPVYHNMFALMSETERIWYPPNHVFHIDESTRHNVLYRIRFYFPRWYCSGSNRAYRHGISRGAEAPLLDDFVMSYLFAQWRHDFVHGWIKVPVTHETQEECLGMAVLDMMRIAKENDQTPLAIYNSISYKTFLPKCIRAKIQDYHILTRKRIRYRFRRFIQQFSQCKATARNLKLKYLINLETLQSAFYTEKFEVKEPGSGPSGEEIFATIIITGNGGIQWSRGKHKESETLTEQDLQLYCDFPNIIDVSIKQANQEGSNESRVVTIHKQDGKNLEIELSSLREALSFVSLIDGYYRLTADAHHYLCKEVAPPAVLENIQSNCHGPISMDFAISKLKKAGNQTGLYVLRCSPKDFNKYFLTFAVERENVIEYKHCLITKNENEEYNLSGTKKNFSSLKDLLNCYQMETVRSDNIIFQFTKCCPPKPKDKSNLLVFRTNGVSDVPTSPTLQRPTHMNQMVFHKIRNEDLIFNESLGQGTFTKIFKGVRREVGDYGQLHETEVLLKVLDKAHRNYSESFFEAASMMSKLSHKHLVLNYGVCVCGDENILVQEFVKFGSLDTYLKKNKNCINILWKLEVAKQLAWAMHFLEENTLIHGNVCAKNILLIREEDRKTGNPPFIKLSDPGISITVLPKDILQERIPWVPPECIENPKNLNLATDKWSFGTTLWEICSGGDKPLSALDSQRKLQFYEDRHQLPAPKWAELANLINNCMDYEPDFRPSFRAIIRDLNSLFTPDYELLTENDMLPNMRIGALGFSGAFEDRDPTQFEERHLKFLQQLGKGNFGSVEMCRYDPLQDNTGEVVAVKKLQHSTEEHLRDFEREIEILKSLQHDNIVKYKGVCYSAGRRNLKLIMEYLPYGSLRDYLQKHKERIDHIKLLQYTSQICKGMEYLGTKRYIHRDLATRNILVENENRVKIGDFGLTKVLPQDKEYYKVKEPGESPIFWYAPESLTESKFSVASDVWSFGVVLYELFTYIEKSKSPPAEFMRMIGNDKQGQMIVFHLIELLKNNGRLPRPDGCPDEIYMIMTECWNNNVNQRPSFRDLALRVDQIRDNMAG
Chain of JAK1 (P23458 whole entry): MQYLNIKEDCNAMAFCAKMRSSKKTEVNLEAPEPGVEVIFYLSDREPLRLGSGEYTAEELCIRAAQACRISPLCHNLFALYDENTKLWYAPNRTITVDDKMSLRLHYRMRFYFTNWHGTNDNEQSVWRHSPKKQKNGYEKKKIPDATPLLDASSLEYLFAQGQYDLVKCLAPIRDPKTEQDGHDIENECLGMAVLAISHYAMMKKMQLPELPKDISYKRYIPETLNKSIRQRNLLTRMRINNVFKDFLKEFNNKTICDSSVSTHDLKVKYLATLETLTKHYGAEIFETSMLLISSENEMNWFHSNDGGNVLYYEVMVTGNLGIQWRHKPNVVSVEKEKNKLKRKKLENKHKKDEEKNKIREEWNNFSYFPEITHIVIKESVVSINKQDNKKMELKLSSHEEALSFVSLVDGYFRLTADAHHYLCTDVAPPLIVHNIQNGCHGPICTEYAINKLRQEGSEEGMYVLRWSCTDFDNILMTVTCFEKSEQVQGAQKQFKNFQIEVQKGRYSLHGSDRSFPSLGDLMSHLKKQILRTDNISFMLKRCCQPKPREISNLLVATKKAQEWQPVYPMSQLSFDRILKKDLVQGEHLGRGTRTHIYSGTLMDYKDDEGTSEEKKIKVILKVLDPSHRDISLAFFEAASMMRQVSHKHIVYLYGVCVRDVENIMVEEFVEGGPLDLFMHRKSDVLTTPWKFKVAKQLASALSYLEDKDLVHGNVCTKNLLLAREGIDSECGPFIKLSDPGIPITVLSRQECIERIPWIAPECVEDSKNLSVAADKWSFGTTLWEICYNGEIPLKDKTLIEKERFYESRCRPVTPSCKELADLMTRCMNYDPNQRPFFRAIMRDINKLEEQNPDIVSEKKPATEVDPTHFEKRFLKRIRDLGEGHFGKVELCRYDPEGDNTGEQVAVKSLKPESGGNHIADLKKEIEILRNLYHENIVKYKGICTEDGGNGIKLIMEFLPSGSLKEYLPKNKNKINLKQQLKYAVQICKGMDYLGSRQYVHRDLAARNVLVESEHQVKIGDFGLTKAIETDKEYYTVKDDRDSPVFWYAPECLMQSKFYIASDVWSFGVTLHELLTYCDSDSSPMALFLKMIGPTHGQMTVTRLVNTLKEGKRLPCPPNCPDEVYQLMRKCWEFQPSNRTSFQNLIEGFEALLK

Structure (SMILES) | IC50 (JAK2) [nM] | IC50 (JAK1) [nM] | JAK2/JAK1 (JAK1) | IC50 (JAK3; 4 uM ATP) [nM] | IC50 (JAK3) [nM]
CN(c1c(C#N)cnc2[nH]ccc12)[C@H]1C[C@@H]2CN(S(=O)(=O)c3cccc(F)c3)C[C@@H]2C1 [Compound H28] | 135 | 9.5 | 14.21 | 220 | –
O=C(NCC(F)(F)F)N1C[C@H](Nc2c(C(F)(F)F)cnc3[nH]ccc23)[C@H](C2CC2)C1 (relative stereo) [Compound H91, (cis)-3-cyclopropyl-N-(2,2,2-trifluoroethyl)-4-((5-(trifluoromethyl)-1H-pyrrolo[2,3-b]pyridin-4-yl)amino)pyrrolidin-1-carboxamide] | 18.7 | 0.92 | 20.33 | 96 | –
CC[C@@H]1CC(NC(=O)Nc2nc(OC)ns2)C[C@@H]1Nc1c(C#N)cnc2[nH]ccc12 (stereo partly drawn) [Compound H61, 1-((3S,4R)-3-((5-cyano-1H-pyrrolo[2,3-b]pyridin-4-yl)amino)-4-ethylcyclopentyl)-3-(3-methoxy-1,2,4-thiadiazole-5-yl)urea] | 126 | 8.23 | 15.31 | 589 | –
C[C@H](O)C(=O)N1C[C@H]2C[C@H](N(C)c3c(C#N)cnc4[nH]ccc34)C[C@H]2C1 [Compound H23, (3aR,5S,6aS)-4-{[2-((2S)-2-hydroxypropionyl)-hexahydrocyclopenta[c]pyrrole-5-yl]-methyl-amino}-1H-pyrrolo[2,3-b]pyridin-5-carbonitrile] | 135 | 7.16 | 18.85 | 533 | –
CN(c1c(C#N)cnc2[nH]ccc12)[C@H]1C[C@@H]2CN(S(=O)(=O)CCC(F)(F)F)C[C@@H]2C1 [Compound H27] | 33 | 5.6 | 5.89 | 171 | –
CN(c1c(C#N)cnc2[nH]ccc12)[C@@H]1CC[C@H](CS(=O)(=O)N2CCC(CO)C2)C1 (some centres unmarked) [Compound H71] | 9.8 | 1.13 | 8.67 | 70 | –
C[C@@H]1CN(S(=O)(=O)C[C@H]2CC[C@H](N(C)c3c(C#N)cnc4[nH]ccc34)CC2)C[C@H]1CO (relative stereo) [Compound H66, 4-((trans-4-(((trans-3-(hydroxymethyl)-4-methylpyrrolidin-1-yl)sulfonyl)methyl)cyclohexyl)(methyl)amino)-1H-pyrrolo[2,3-b]pyridin-5-carbonitrile] | 126 | 8.9 | 14.16 | 197 | –
CN1CCN(S(=O)(=O)C[C@H]2CC[C@H](N(C)c3c(C#N)cnc4[nH]ccc34)CC2)CC1 [Compound H63, Trans-4-(methyl((1r,4r)-4-(((4-methylpiperazin-1-yl)sulfonyl)methyl)cyclohexyl)amino)-1H-pyrrolo[2,3-b]pyridin-5-carbonitrile] | 7.3 | 1.42 | 5.14 | 64 | –
CCOc1nc(NC(=O)N2C[C@H]3C[C@H](N(C)c4c(C#N)cnc5[nH]ccc45)C[C@H]3C2)no1 [Compound H48, (3aR,5s,6aS)-5-((5-cyano-1H-pyrrolo[2,3-b]pyridin-4-yl)(methyl)amino)-N-(5-ethoxy-1,2,4-oxadiazole-3-yl)hexahydrocyclopentadiene[c]pyrrole-2(1H)-carboxamide] | 7.4 | 0.86 | 8.60 | 56 | –
COCCOc1nsc(NC(=O)N2C[C@H]3C[C@H](Nc4c(C#N)cnc5[nH]ccc45)C[C@H]3C2)n1 [Compound H52, (3aR,5S,6aS)-5-((5-cyano-1H-pyrrolo[2,3-b]pyridin-4-yl)amino)-N-(3-(2-methoxyethoxy)-1,2,4-thiadiazole-5-yl)hexahydrocyclopenta[c]pyrrole-2(1H)-carboxamide] | 7.95 | 0.79 | 10.06 | 69 | –
CC[C@@H]1CN(C(=O)NCC(C)C)C[C@@H]1Nc1c(C#N)cnc2[nH]ccc12 (relative stereo) [Compound H79, (cis)-3-((5-cyano-1H-pyrrolo[2,3-b]pyridin-4-yl)amino)-4-ethyl-N-isobutylpyrrolidin-1-carboxamide] | 6.5 | 0.96 | 6.77 | 59 | –
CC[C@@H]1CN(C(=O)NCC(C)(F)F)C[C@@H]1Nc1c(C#N)cnc2[nH]ccc12 (relative stereo) [Compound H89, (cis)-3-((5-cyano-1H-pyrrolo[2,3-b]pyridin-4-yl)amino)-N-(2,2-difluoropropyl)-4-ethylpyrrolidin-1-carboxamide] | 19.7 | 2.9 | 6.79 | 241 | –
CN(c1c(C#N)cnc2[nH]ccc12)C1CC(NS(=O)(=O)c2ccc(C(F)(F)F)cc2)C1 (stereo not drawn) [Compound H16, (cis)-4-{[3-(4-trifluoromethylbenzenesulfonamido)-cyclobutyl-1-yl]-methyl-amino}-1H-pyrrolo[2,3-b]pyridin-5-carbonitrile] | 132 | 9.16 | 14.41 | 633 | –
CC[C@@H]1CN(C(=O)NC2CC2)C[C@@H]1Nc1c(C#N)cnc2[nH]ccc12 (relative stereo) [Compound H84, (cis)-3-((5-cyano-1H-pyrrolo[2,3-b]pyridin-4-yl)amino)-N-cyclopropyl-4-ethylpyrrolidin-1-carboxamide] | 38 | 6.9 | 5.51 | 387 | –
COCCOc1nsc(NC(=O)N2C[C@H]3C[C@H](N(C)c4c(C#N)cnc5[nH]ccc45)C[C@H]3C2)n1 [Compound H51, (3aR,5S,6aS)-5-((5-cyano-1H-pyrrolo[2,3-b]pyridin-4-yl)(methyl)amino)-N-(3-(2-methoxyethoxy)-1,2,4-thiadiazole-5-yl)hexahydrocyclopenta[c]pyrrole-2(1H)-carboxamide] | 30.9 | 6.89 | 4.49 | 101 | –
CC[C@@H]1CN(S(=O)(=O)CCC(F)(F)F)C[C@@H]1Nc1c(C#N)cnc2[nH]ccc12 (relative stereo) [Compound H76, 4-(((cis)-4-ethyl-1-((3,3,3-trifluoropropyl)sulfonyl)pyrrolidin-3-yl)amino)-1H-pyrrolo[2,3-b]pyridin-5-carbonitrile] | 7.8 | 0.95 | 8.21 | 91 | –
COCc1nsc(NC(=O)N2C[C@H]3C[C@H](N(C)c4c(C#N)cnc5[nH]ccc45)C[C@H]3C2)n1 [Compound H56] | 10 | 1.43 | 7.01 | 82 | –
CCC1CN(C(=O)NCC(F)F)CC1Nc1c(C#N)cnc2[nH]ccc12 (centres unmarked) [Compound H87, 3-((5-cyano-1H-pyrrolo[2,3-b]pyridin-4-yl)amino)-N-(2,2-difluoroethyl)-4-ethylpyrrolidin-1-carboxamide] | 45 | 5.1 | 8.82 | 73 | –
CC[C@@H]1CN(C(=O)NC(C)C)C[C@@H]1Nc1c(C#N)cnc2[nH]ccc12 (relative stereo) [Compound H75] | 17.3 | – | – | – | 89
